system: Wnt activity; assay: Wnt activity reporter assay (SP5 promoter firefly luciferase in SW480 cells); format: cell-based; conditions: Homo sapiens; SW480 cells bearing SP5 promoter luciferase reporter; 24 h after compound addition; read-out: Wnt inhibition
Excerpt: The above synthesized compounds were screened using the assay procedure for Wnt activity described below.
Reporter cell lines can be generated by stably transducing cells of cancer cell lines (e.g., colon cancer) with a lentiviral construct that include a wnt-responsive promoter driving expression of the firefly luciferase gene.
Lentiviral constructs can be made in which the SP5 promoter, a promoter having eight TCF/LEF binding sites derived from the SP5 promoter, is linked upstream of the firefly luciferase gene. The lentiviral constructs can also include a hygromycin resistance gene as a selectable marker. The SP5 promoter construct can be used to transduce SW480 cells, a colon cancer cell line having a mutated APC gene that generates a truncated APC protein, leading to de-regulated accumulation of β-catenin.
Cultured SW480 cells bearing a reporter construct can be distributed at approximately 10,000 cells per well into 384 well multiwell plates. Compounds from a small molecule compound library can then be added to the wells in half-log dilutions using a three micromolar top concentration. A series of control wells for each cell type receive only buffer and compound solvent. Twenty-four hours after the addition of compound, reporter activity for luciferases can be assayed, for example, by addition of the BrightGlo luminescence reagent (Promega) and the Victor3 plate reader (Perkin Elmer). Readings can be normalized to DMSO only treated cells, and normalized activities can then be used in the IC50 calculations.

| IC50 | SMILES |
| --- | --- |
| 535 nM | Cc1ccncc1-c1ccc2[nH]nc(-c3nc4c(N5CCCCC5)cncc4[nH]3)c2c1 [Compound 202, 2-(5-(4-Methylpyridin-3-yl)-1H-indazol-3-yl)-7-(piperidin-1-yl)-3H-imidazo[4,5-c]pyridine] |
| 2 nM | CCC(=O)Nc1cncc(-c2ccc3[nH]nc(-c4nc5c(-c6ccsc6)cncc5[nH]4)c3c2)c1 [Compound 289, N-(5-(3-(7-(Thiophen-3-yl)-3H-imidazo[4,5-c]pyridin-2-yl)-1H-indazol-5-yl)pyridin-3-yl)propionamide] |
| 22 nM | c1cncc(-c2ccc3[nH]nc(-c4nc5c(-c6ccoc6)cncc5[nH]4)c3c2)c1 [Compound 315, 7-(Furan-3-yl)-2-(5-(pyridin-3-yl)-1H-indazol-3-yl)-3H-imidazo[4,5-c]pyridine] |
| 2 nM | FC1(F)CCN(Cc2cncc(-c3ccc4[nH]nc(-c5nc6c(-c7ccsc7)cncc6[nH]5)c4c3)c2)C1 [Compound 346, 2-(5-(5-((3,3-Difluoropyrrolidin-1-yl)methyl)pyridin-3-yl)-1H-indazol-3-yl)-7-(thiophen-3-yl)-3H-imidazo[4,5-c]pyridine] |
| 191 nM | Cc1ccncc1-c1ccc2[nH]nc(-c3nc4c(-c5ccsc5)cncc4[nH]3)c2c1 [Compound 293, 2-(5-(4-Methylpyridin-3-yl)-1H-indazol-3-yl)-7-(thiophen-3-yl)-3H-imidazo[4,5-c]pyridine] |
| 33 nM | O=C(Cc1ccccc1)Nc1cncc(-c2ccc3[nH]nc(-c4nc5c(-c6ccoc6)cncc5[nH]4)c3c2)c1 [Compound 321, N-(5-(3-(7-(Furan-3-yl)-3H-imidazo[4,5-c]pyridin-2-yl)-1H-indazol-5-yl)pyridin-3-yl)-2-phenylacetamide] |
| 39 nM | FC1(F)CCN(Cc2cncc(-c3ccc4[nH]nc(-c5nc6c(-c7cccnc7)cncc6[nH]5)c4c3)c2)C1 [Compound 339, 2-(5-(5-((3,3-Difluoropyrrolidin-1-yl)methyl)pyridin-3-yl)-1H-indazol-3-yl)-7-(pyridin-3-yl)-3H-imidazo[4,5-c]pyridine] |
| 22 nM | CC(C)CC(=O)Nc1cncc(-c2ccc3[nH]nc(-c4nc5c(-c6cc(F)cc(NCCN(C)C)c6)cncc5[nH]4)c3c2)c1 [Compound 349, N-(5-(3-(7-(3-(2-(Dimethylamino)ethylamino)-5-fluorophenyl)-3H-imidazo[4,5-c]pyridin-2-yl)-1H-indazol-5-yl)pyridin-3-yl)-3-methylbutanamide] |
| 845 nM | c1cc(-c2cncc3[nH]c(-c4n[nH]c5ccc(-c6cncc(CNCC7CCCC7)c6)cc45)nc23)ccn1 [Compound 173, 1-Cyclopentyl-N-((5-(3-(7-(pyridin-4-yl)-3H-imidazo[4,5-c]pyridin-2-yl)-1H-indazol-5-yl)pyridin-3-yl)methyl)methanamine] |
| 2 nM | c1ccc(-c2cncc3[nH]c(-c4n[nH]c5ccc(-c6cccnc6)cc45)nc23)nc1 [Compound 177, 7-(Pyridin-2-yl)-2-(5-(pyridin-3-yl)-1H-indazol-3-yl)-3H-imidazo[4,5-c]pyridine] |
| 58 nM | c1cc(-c2cncc3[nH]c(-c4n[nH]c5ccc(-c6cncc(CNCC7CCCC7)c6)cc45)nc23)cs1 [Compound 311, 1-Cyclopentyl-N-((5-(3-(7-(thiophen-3-yl)-3H-imidazo[4,5-c]pyridin-2-yl)-1H-indazol-5-yl)pyridin-3-yl)methyl)methanamine] |
| 38 nM | CN(C)Cc1cncc(-c2ccc3[nH]nc(-c4nc5c(-c6ccccn6)cncc5[nH]4)c3c2)c1 [Compound 186, N,N-Dimethyl-1-(5-(3-(7-(pyridin-2-yl)-3H-imidazo[4,5-c]pyridin-2-yl)-1H-indazol-5-yl)pyridin-3-yl)methanamine] |
| 311 nM | CC(C)CC(=O)Nc1cncc(-c2ccc3[nH]nc(-c4nc5c(N6CCCCC6)cncc5[nH]4)c3c2)c1 [Compound 199, 3-Methyl-N-(5-(3-(7-(piperidin-1-yl)-3H-imidazo[4,5-c]pyridin-2-yl)-1H-indazol-5-yl)pyridin-3-yl)butanamide] |

The remaining lines, values behind:

| SMILES | IC50 |
| --- | --- |
| Nc1cncc(-c2ccc3[nH]nc(-c4nc5c(-c6ccc(F)cc6)cncc5[nH]4)c3c2)c1 [Compound 97, 5-(3-(7-(4-Fluorophenyl)-3H-imidazo[4,5-c]pyridin-2-yl)-1H-indazol-5-yl)pyridin-3-amine] | 1 nM |
| CC(C)C(=O)Nc1cncc(-c2ccc3[nH]nc(-c4nc5c(N6CCN(C)CC6)cncc5[nH]4)c3c2)c1 [Compound 2, N-(5-(3-(7-(4-methylpiperazin-1-yl)-3H-imidazo[4,5-c]pyridin-2-yl)-1H-indazol-5-yl)pyridin-3-yl)isobutyramide] | 125 to 146 nM |
| c1cncc(-c2ccc3[nH]nc(-c4nc5c(-c6cccnc6)cncc5[nH]4)c3c2)c1 [Compound 136, 7-(Pyridin-3-yl)-2-(5-(pyridin-3-yl)-1H-indazol-3-yl)-3H-imidazo[4,5-c]pyridine] | 35 nM |
| CC(C)(C)CC(=O)Nc1cncc(-c2ccc3[nH]nc(-c4nc5c(-c6cccc(F)c6)cncc5[nH]4)c3c2)c1 [Compound 90, N-(5-(3-(7-(3-Fluorophenyl)-3H-imidazo[4,5-c]pyridin-2-yl)-1H-indazol-5-yl)pyridin-3-yl)-3,3-dimethylbutanamide] | 12 nM |
| CN1CCN(c2cncc3[nH]c(-c4n[nH]c5ccc(-c6cncc(N7CCOCC7)c6)cc45)nc23)CC1 [Compound 5, 4-(5-(3-(7-(4-methylpiperazin-1-yl)-3H-imidazo[4,5-c]pyridin-2-yl)-1H-indazol-5-yl)pyridin-3-yl)morpholine] | 67 to 98 nM |
| CC(C)CC(=O)Nc1cncc(-c2ccc3[nH]nc(-c4nc5c(-c6cccc(F)c6)cncc5[nH]4)c3c2)c1 [Compound 10, N-(5-(3-(7-(3-fluorophenyl)-3H-imidazo[4,5-c]pyridin-2-yl)-1H-indazol-5-yl)pyridin-3-yl)-3-methylbutanamide] | 3.4 to 9 nM |
| CC(C)CC(=O)Nc1cncc(-c2ccc3[nH]nc(-c4nc5c(N6CCN(C)CC6)cncc5[nH]4)c3c2)c1 [Compound 1, 3-methyl-N-(5-(3-(7-(4-methylpiperazin-1-yl)-3H-imidazo[4,5-c]pyridin-2-yl)-1H-indazol-5-yl)pyridin-3-yl)butanamide] | 140 to 150 nM |
| CC(C)C(=O)Nc1cncc(-c2ccc3[nH]nc(-c4nc5c(-c6ccccc6F)cncc5[nH]4)c3c2)c1 [Compound 31, N-(5-(3-(7-(2-Fluorophenyl)-3H-imidazo[4,5-c]pyridin-2-yl)-1H-indazol-5-yl)pyridin-3-yl)isobutyramide] | 5 nM |
| c1cc(-c2cncc3[nH]c(-c4n[nH]c5ccc(-c6cncc(CN7CCCCC7)c6)cc45)nc23)ccn1 [Compound 164, 2-(5-(5-(Piperidin-1-ylmethyl)pyridin-3-yl)-1H-indazol-3-yl)-7-(pyridin-4-yl)-3H-imidazo[4,5-c]pyridine] | > 6000 nM |
| O=C(Nc1cncc(-c2ccc3[nH]nc(-c4nc5c(-c6ccc(F)cc6)cncc5[nH]4)c3c2)c1)C1CCC1 [Compound 111, N-(5-(3-(7-(4-Fluorophenyl)-3H-imidazo[4,5-c]pyridin-2-yl)-1H-indazol-5-yl)pyridin-3-yl)cyclobutanecarboxamide] | 6 nM |
| CC(C)CC(=O)Nc1cncc(-c2ccc3[nH]nc(-c4nc5c(-c6ccccc6F)cncc5[nH]4)c3c2)c1 [Compound 11, N-(5-(3-(7-(2-fluorophenyl)-3H-imidazo[4,5-c]pyridin-2-yl)-1H-indazol-5-yl)pyridin-3-yl)-3-methylbutanamide] | 3.5 to 65 nM |
| O=C(Nc1cncc(-c2ccc3[nH]nc(-c4nc5c(-c6cccc(F)c6)cncc5[nH]4)c3c2)c1)C1CCCCC1 [Compound 94, N-(5-(3-(7-(3-Fluorophenyl)-3H-imidazo[4,5-c]pyridin-2-yl)-1H-indazol-5-yl)pyridin-3-yl)cyclohexanecarboxamide] | 11 nM |
| CN(C)Cc1cncc(-c2ccc3[nH]nc(-c4nc5c(-c6cccc(F)c6)cncc5[nH]4)c3c2)c1 [Compound 89, 1-(5-(3-(7-(3-Fluorophenyl)-3H-imidazo[4,5-c]pyridin-2-yl)-1H-indazol-5-yl)pyridin-3-yl)-N,N-dimethylmethanamine] | > 10000 nM |
| O=C(Cc1ccccc1)Nc1cncc(-c2ccc3[nH]nc(-c4nc5c(-c6cccc(F)c6)cncc5[nH]4)c3c2)c1 [Compound 86, N-(5-(3-(7-(3-Fluorophenyl)-3H-imidazo[4,5-c]pyridin-2-yl)-1H-indazol-5-yl)pyridin-3-yl)-2-phenylacetamide] | 23 nM |
| Cc1ccncc1-c1ccc2[nH]nc(-c3nc4c(-c5ccc(F)cc5)cncc4[nH]3)c2c1 [Compound 99, 7-(4-Fluorophenyl)-2-(5-(4-methylpyridin-3-yl)-1H-indazol-3-yl)-3H-imidazo[4,5-c]pyridine] | > 5000 nM |
| CN(C)Cc1cncc(-c2ccc3[nH]nc(-c4nc5c(-c6cncc(F)c6)cncc5[nH]4)c3c2)c1 [Compound 16, 1-(5-(3-(7-(5-fluoropyridin-3-yl)-3H-imidazo[4,5-c]pyridin-2-yl)-1H-indazol-5-yl)pyridin-3-yl)-N,N-dimethylmethanamine] | 164 to 200 nM |
| Fc1cccc(-c2cncc3[nH]c(-c4n[nH]c5ccc(-c6cccnc6)cc45)nc23)c1 [Compound 15, 7-(3-fluorophenyl)-2-(5-(pyridin-3-yl)-1H-indazol-3-yl)-3H-imidazo[4,5-c]pyridine] | 10 to 25 nM |
